Data taken from ChEMBL document CHEMBL3243973, “Synthesis and antitussive activity of aminotetra- (and -hexa-) hydrodibenzofurans” (J Med Chem, 1977).

What was measured:
[1] = system: Cavia porcellus; experiment: Antitussive activity in Dunkin-Hartley guinea pig assessed as inhibition of electrically-stimulated vagus nerve-induced cough at 100 mg/kg, po administered compound prior to electrical stimulation of vagus nerve measured at 20 to 40 mins relative to control; format: functional
[2] = system: Cavia porcellus; experiment: Antitussive activity in po dosed Dunkin-Hartley guinea pig assessed as inhibition of electrically-stimulated vagus nerve-induced cough administered compound prior to electrical stimulation of vagus nerve measured at 20 to 40 mins; format: functional
[3] = system: Cavia porcellus; experiment: Toxicity in Dunkin-Hartley guinea pig assessed as effect on central nervous system at 100 mg/kg, po; format: organism-based; set-up: dose 100 mg/kg, route oral; settings: in vivo
[4] = system: Cavia porcellus; experiment: Toxicity in Dunkin-Hartley guinea pig assessed as effect on cardiovascular system at 100 mg/kg, po; format: organism-based; set-up: dose 100 mg/kg, route oral; settings: in vivo
[5] = system: Cavia porcellus; experiment: Toxicity in Dunkin-Hartley guinea pig assessed as gastrointestinal effect at 100 mg/kg, po; format: organism-based; set-up: dose 100 mg/kg, route oral; settings: in vivo

SMILES	inhibition in vivo at 100 mg/kg [1]	further results
Cc1ccc2c(c1)[C@]1(C)CCC(=O)[C@H](NC(=O)CCN3CCCCC3)[C@@H]1O2	46%	–
CC(=O)N1CCN(CCC(=O)N[C@H]2C(=O)CC[C@@]3(C)c4cc(C)ccc4O[C@@H]23)CC1	33%	–
CCN1CCN(CCC(=O)N[C@H]2C(=O)CC[C@@]3(C)c4cc(C)ccc4O[C@@H]23)CC1	8%	–
Cc1ccc2c(c1)[C@]1(C)CCC(=O)[C@H](NC(=O)CCCN(C)C)[C@@H]1O2	67%	–
Cc1ccc2c(c1)[C@]1(C)CCC(=O)[C@H](NC(=O)CCCN3CCN(C)CC3)[C@@H]1O2	72%	–
Cc1ccc2c(c1)[C@]1(C)CCC(=O)[C@H](NC(=O)CCCCN(C)C)[C@@H]1O2.Cl	> 80%	ED50 [2]: 71 mg/kg
Cc1ccc2c(c1)[C@]1(C)CCC(=O)[C@H](NC(=O)CCCCCN(C)C)[C@@H]1O2	25%	–
Cc1ccc2c(c1)[C@]1(C)CC/C(=N\O)[C@H](NC(=O)CCN3CCN(C)CC3)[C@@H]1O2	55%	–
Cc1ccc2c(c1)[C@]1(C)CC/C(=N\NC(N)=O)[C@H](NC(=O)CCN3CCN(C)CC3)[C@@H]1O2	25%	–
Cc1ccc2c(c1)[C@]1(C)CCC(O)[C@H](NC(=O)CCN3CCN(C)CC3)[C@@H]1O2 (stereo partly drawn)	12%	–
Cc1ccc2c(c1)[C@]1(C)CCC3(OCCO3)[C@H](NC(=O)CCN3CCN(C)CC3)[C@@H]1O2	11%	–
Cc1ccc2c(c1)[C@]1(C)CCC3(SCCS3)[C@H](NC(=O)CCN3CCN(C)CC3)[C@@H]1O2	46%	–
Cc1ccc2c(c1)[C@]1(C)CCC[C@H](NC(=O)CCN3CCN(C)CC3)[C@@H]1O2	46%	–
Cc1ccc2c(c1)[C@]1(C)CCC(O)[C@H](NCCCN3CCN(C)CC3)[C@@H]1O2 (stereo partly drawn)	62%	–
Cc1ccc2c(c1)[C@]1(C)CCC(=O)[C@H](NC(=O)OCCN3CCN(C)CC3)[C@@H]1O2	33%	–
Cc1ccc2c(c1)[C@]1(C)CCC(=O)[C@H](NC(=O)CCOCCN(C)C)[C@@H]1O2	37%	–
CC(=O)N[C@H]1C(=O)CC[C@@]2(C)c3cc(C)ccc3O[C@@H]12	25%	–
CC(=O)c1cc(C)cc(C2(C)C=C(NC(=O)CCN3CCN(C)CC3)C(=O)CC2)c1O (stereo not drawn)	22%	–
CC(=O)c1cc(C)cc2c1O[C@H]1[C@@H](NC(=O)CCN3CCN(C)CC3)C(=O)CC[C@@]21C	42%	–
Cc1cc([N+](=O)[O-])c2c(c1)[C@]1(C)CCC(=O)[C@H](NC(=O)CCN3CCN(C)CC3)[C@@H]1O2	> 80%	ED50 [2]: 34 mg/kg
Cc1ccc2c(c1)[C@]1(C)CCC(O)=C(C(=O)NCCN3CCN(C)CC3)[C@@H]1O2	61%	–
Cc1ccc2c(c1)[C@]1(C)CCC(=O)[C@H](N)[C@@H]1O2	33%	–
Cc1ccc2c(c1)[C@]1(C)CCC(=O)[C@H](NC(=O)CN3CCN(C)CC3)[C@@H]1O2	43%	–

SMILES	inhibition in vivo at 100 mg/kg [1]	further results
Cc1ccc2c(c1)[C@]1(C)C=C(NC(=O)Cn3cccc3)C(=O)C[C@@H]1O2	42%	–
Cc1ccc2c(c1)[C@]1(C)C=C(NC(=O)CN3CCCCC3)C(=O)C[C@@H]1O2	17%	–
Cc1ccc2c(c1)[C@]1(C)C=C(NC(=O)CN(C)C)C(=O)C[C@@H]1O2	33%	–
Cc1ccc2c(c1)[C@]1(C)C=C(NC(=O)CCN3CCN(C)CC3)C(=O)C[C@@H]1O2	25%	–
Cc1ccc2c(c1)[C@]1(C)C=C(NC(=O)CCN(C)C)C(=O)C[C@@H]1O2	58%	–
Cc1ccc2c(c1)[C@]1(C)C=C(NC(=O)CN3CCOCC3)C(=O)C[C@@H]1O2	31%	–
Cc1ccc2c(c1)[C@]1(C)C=C(NC(=O)CN3CCOCC3)C(O)C[C@@H]1O2 (stereo partly drawn)	29%	–
Cc1ccc2c(c1)[C@]1(C)CCC(=O)[C@H](NC(=O)CN3CCCC3)[C@@H]1O2	17%	–
CCN(CC(=O)N[C@H]1C(=O)CC[C@@]2(C)c3cc(C)ccc3O[C@@H]12)Cc1ccccc1	9%	–
Cc1ccc2c(c1)[C@]1(C)CCC(=O)[C@H](NC(=O)CCN3CCOCC3)[C@@H]1O2	39%	–
Cc1ccc2c(c1)[C@]1(C)CCC(=O)[C@H](NC(=O)CCN(C)C)[C@@H]1O2	79%	–
Cc1ccc2c(c1)[C@]1(C)CCC(=O)[C@H](NC(=O)CCN3CCN(C)CC3)[C@@H]1O2.Cl	> 80%	ED50 [2]: 32.5 mg/kg; Activity [3]: Non-toxic; Activity [4]: Non-toxic; Activity [5]: Non-toxic
Cc1ccc2c(c1)[C@]1(C)CCC(=O)[C@H](NC(=O)CCN3CCCC3)[C@@H]1O2	44%	–
CCOC(=O)N1CCN(CCC(=O)N[C@H]2C(=O)CC[C@@]3(C)c4cc(C)ccc4O[C@@H]23)CC1	33%	–
Cc1ccc2c(c1)[C@]1(C)CCC(=O)[C@H](NC(=O)CCN3CCN(c4ccccc4)CC3)[C@@H]1O2	54%	–
Cc1ccc2c(c1)[C@]1(C)CCC(=O)[C@H](NC(=O)CCN3CCN(CCO)CC3)[C@@H]1O2	17%	–
Cc1ccc2c(c1)[C@]1(C)CCC(=O)[C@H](NC(=O)CCN3CCN(Cc4ccccc4)CC3)[C@@H]1O2	33%	–
Cc1ccc2c(c1)[C@]1(C)CCC(=O)[C@H](NC(=O)CCN(C)CCN(C)C)[C@@H]1O2	50%	–
CCN(CC)CCC(=O)N[C@H]1C(=O)CC[C@@]2(C)c3cc(C)ccc3O[C@@H]12	33%	–
Cc1ccc2c(c1)[C@]1(C)CCC(=O)[C@H](NC(=O)CCN3CCNCC3)[C@@H]1O2	75%	–
Cc1ccc2c(c1)[C@]1(C)C=C(C(=O)NCCN3CCN(C)CC3)C(=O)C[C@@H]1O2	62.5%	–
Cc1ccc2c(c1)[C@]1(C)CC(NC(=O)CCN3CCN(C)CC3)C(=O)C[C@@H]1O2 (stereo partly drawn)	12.5%	–
COc1ccc2c3c1O[C@H]1[C@@H](O)C=C[C@H]4[C@@H](C2)N(C)CC[C@@]341 [CODEINE]	> 80%	ED50 [2]: 38.5 mg/kg
